According to paper PMC6272981, “A Selective Cyclic Peptidic Human SIRT5 Inhibitor” (Molecules, 2016):
Where “and” joins values, the source holds several entries; their conditions need not be identical. Equal values may be shown once. *1 amine or outer side, *2 acyl side, *3 side chain or, on linkers, in order; H or OH if unused. Where a SMILES comes first, the peptide text is derived from it. Bridges are numbered along the chain shown (N, C = ends). [ ]: non-standard residue; d: D form. Suberoyl(Gly)2 = O=C(CCCCCCC(=O)NCC(=O)[*:2])NCC(=O)[*:1]; X1 = O=C(O)CCNC(=S)NCCCC[C@H](N[*:1])C(=O)[*:2]; Suberoyl = O=C(CCCCCCC(=O)[*:2])[*:1]

How the values were obtained:
[1] = biological target: T1, human recombinant His6-SIRT1 or GST-SIRT1 (Homo sapiens, UniProt Q96EB6); experiment: HPLC-based in vitro sirtuin inhibition assay, SIRT1; assay type: biochemical; conditions: SIRT1 320 nM, 0.5 mM β-NAD+, 0.3 mM acetyl-lysine p53 peptide substrate, 37 °C, 10 min; Dixon plots
T1 construct: His6 or GST (one of the two); purchased Sigma-Aldrich China (His6-SIRT1) or Cayman Chemical (GST-SIRT1)
T1 sequence (Q96EB6 1-747): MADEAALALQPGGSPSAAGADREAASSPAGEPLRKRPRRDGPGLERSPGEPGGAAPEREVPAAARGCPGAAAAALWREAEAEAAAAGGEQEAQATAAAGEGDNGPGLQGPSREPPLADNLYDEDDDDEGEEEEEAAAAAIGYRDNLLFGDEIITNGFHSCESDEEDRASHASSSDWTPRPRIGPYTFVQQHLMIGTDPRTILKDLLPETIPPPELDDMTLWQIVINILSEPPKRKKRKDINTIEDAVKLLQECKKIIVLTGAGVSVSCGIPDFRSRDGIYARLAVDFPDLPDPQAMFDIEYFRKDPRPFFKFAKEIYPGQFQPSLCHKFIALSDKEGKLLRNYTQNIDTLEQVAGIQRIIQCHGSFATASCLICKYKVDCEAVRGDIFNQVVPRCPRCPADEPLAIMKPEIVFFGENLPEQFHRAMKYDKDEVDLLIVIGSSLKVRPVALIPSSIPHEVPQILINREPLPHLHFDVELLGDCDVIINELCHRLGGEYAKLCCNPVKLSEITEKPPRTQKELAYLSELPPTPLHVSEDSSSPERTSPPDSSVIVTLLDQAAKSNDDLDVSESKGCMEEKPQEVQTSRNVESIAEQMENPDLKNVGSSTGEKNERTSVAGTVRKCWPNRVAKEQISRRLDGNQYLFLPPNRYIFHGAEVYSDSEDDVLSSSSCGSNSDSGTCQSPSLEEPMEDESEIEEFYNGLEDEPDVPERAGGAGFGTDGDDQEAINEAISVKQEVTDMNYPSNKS
Text: (§1) The following materials were purchased from commercial vendors for the sirtuin inhibition assay and the pronase digestion assay, and were used as received without further treatment. Sigma-Aldrich China: the active human recombinant His6-SIRT1, Trizma, Hepes, β-NAD^+, a 1.0 M solution of MgCl2 (molecular-biology grade), the pronase from Streptomyces griseus; Cayman Chemical (Ann Arbor, Michigan, USA): the active human recombinant GST-SIRT1, the active human recombinant His6-SIRT2, the active human recombinant His6-SIRT3, the active human recombinant GST-SIRT5, the active human recombinant His6-SIRT6; TCI Shanghai: D,L-dithiothreitol (DTT); Alfa Aesar China: NaCl, KCl.
(§2) The peptide substrates prepared and used in the sirtuin inhibition assay were: the SIRT1/2/3 substrate H2N-HK-[N^ε-acetyl-lysine]-LM-COOH corresponding to amino acids 380–384 of the human p53 protein acetylated at K^382; the SIRT5 substrate CH3CONH-AR-[N^ε-succinyl-lysine]-ST-CONH2 corresponding to amino acids 7–11 of the human histone H3 protein succinylated at K^9; the SIRT6 substrate H2N-EALPK-[N^ε-myristoyl-lysine]-TGGPQ-CONH2 corresponding to amino acids 15–25 of the human tumor necrosis factor α (TNFα) myristoylated at K^20.
(§3) The HPLC-based sirtuin inhibition assay that our laboratory has been using over past several years was employed in the current study and was performed as described previously. […]

[2] = biological target: T2, human recombinant GST-SIRT5 (Homo sapiens, UniProt Q9NXA8); experiment: HPLC-based in vitro sirtuin inhibition assay, SIRT5-catalyzed deacylation (desuccinylation); assay type: biochemical; conditions: GST-SIRT5 370 nM, 0.8 mM β-NAD+, 0.88 mM succinyl-lysine H3 peptide substrate, 37 °C, 5 min; estimated from Dixon plots
T2 construct: purchased Cayman Chemical (Ann Arbor, Michigan, USA)
T2 sequence (Q9NXA8 37-310): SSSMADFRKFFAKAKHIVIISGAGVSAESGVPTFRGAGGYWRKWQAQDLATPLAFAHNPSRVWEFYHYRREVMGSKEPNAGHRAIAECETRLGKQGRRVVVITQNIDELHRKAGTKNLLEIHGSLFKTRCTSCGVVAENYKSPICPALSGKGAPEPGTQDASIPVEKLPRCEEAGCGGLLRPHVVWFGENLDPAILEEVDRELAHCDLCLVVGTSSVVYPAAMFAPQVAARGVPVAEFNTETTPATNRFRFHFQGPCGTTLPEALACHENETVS
Text: as §1, §2, §3

[3] = biological target: T3, human recombinant His6-SIRT6 (Homo sapiens, UniProt Q8N6T7); experiment: HPLC-based in vitro sirtuin inhibition assay, SIRT6 (demyristoylation); assay type: biochemical; conditions: His6-SIRT6 313 nM, 0.2 mM β-NAD+, 0.02 mM myristoyl-lysine TNFα peptide substrate, 37 °C, 12 min; Dixon plots
T3 construct: purchased Cayman Chemical (Ann Arbor, Michigan, USA)
T3 sequence (Q8N6T7 whole entry): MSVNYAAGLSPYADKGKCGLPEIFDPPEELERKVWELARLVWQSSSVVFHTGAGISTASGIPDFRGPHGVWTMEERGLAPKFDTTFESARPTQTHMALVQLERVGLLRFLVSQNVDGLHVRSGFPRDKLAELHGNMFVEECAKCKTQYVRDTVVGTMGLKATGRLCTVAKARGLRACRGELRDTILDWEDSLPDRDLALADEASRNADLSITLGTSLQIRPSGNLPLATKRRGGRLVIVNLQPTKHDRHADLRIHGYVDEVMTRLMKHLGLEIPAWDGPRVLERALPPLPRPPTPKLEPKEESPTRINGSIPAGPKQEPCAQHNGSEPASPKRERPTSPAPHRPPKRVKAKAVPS
Text: as §1, §2, §3

[4] = biological target: T4, human recombinant His6-SIRT3 (Homo sapiens, UniProt Q9NTG7); experiment: HPLC-based in vitro sirtuin inhibition assay, SIRT3; assay type: biochemical; conditions: His6-SIRT3 320 nM, 3.5 mM β-NAD+, 0.105 mM acetyl-lysine p53 peptide substrate, 37 °C, 10 min; Dixon plots
T4 construct: purchased Cayman Chemical (Ann Arbor, Michigan, USA)
T4 sequence (Q9NTG7 1-399): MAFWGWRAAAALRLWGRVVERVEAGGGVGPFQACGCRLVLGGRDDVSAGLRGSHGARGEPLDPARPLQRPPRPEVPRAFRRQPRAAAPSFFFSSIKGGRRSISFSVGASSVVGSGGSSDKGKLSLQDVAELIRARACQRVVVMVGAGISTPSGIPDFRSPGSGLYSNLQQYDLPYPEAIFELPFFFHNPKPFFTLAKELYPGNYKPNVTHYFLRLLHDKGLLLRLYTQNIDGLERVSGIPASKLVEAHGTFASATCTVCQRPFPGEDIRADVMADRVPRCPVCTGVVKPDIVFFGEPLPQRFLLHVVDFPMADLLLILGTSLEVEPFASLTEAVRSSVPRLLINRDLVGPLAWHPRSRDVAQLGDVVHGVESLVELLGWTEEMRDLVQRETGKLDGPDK
Text: as §1, §2, §3

[5] = biological target: T5, human recombinant His6-SIRT2 (Homo sapiens, UniProt Q8IXJ6); experiment: HPLC-based in vitro sirtuin inhibition assay, SIRT2-catalyzed deacetylation; assay type: biochemical; conditions: His6-SIRT2 309 nM, 0.5 mM β-NAD+, 0.39 mM acetyl-lysine p53 peptide substrate, 37 °C, 12 min; Dixon plots
T5 construct: purchased Cayman Chemical (Ann Arbor, Michigan, USA)
T5 sequence (Q8IXJ6 1-389): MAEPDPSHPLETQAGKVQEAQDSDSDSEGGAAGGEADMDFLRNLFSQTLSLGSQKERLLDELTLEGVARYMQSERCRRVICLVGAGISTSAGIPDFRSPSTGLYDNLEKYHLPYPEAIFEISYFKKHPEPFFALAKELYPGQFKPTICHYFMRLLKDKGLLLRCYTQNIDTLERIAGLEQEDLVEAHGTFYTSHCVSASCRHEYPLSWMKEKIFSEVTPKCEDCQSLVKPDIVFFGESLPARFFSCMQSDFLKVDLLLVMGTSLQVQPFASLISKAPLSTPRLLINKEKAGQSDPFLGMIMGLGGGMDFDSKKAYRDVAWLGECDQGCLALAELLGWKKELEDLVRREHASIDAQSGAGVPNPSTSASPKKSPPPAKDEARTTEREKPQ
Text: as §1, §2, §3

SIRT5 = SIRT5 desuccinylation assay; cited from earlier work
SIRT3 = conditions: cited from earlier work
SIRT2 = conditions: cited from earlier work
SIRT1 = conditions: cited from earlier work

Compound	IC50 SIRT1 [1] [µM]	IC50 [2]	IC50 [3] [µM]	IC50 [4] [µM]	IC50 [5]	IC50 (SIRT5) [µM]	IC50 (SIRT3) [µM]	IC50 (SIRT2) [µM]	IC50 (SIRT1) [µM]
CC(=O)N[C@@H](C)C(=O)N[C@@H](CCCNC(=N)N)C(=O)N[C@@H](CCCCNC(=S)NCCC(=O)O)C(=O)N[C@@H](CO)C(=O)N[C@H](C(N)=O)[C@@H](C)O [Compound 6] (Ac-AR[X1]ST-NH2)	>1000	7.6 ± 1.5 µM	> 1000	> 1000	96.4 ± 18.5 µM				
CC(=O)N[C@H]1CCCCNC(=O)CCCCCCC(=O)NCCCC[C@@H](C(=O)N[C@H](C(N)=O)[C@@H](C)O)NC(=O)[C@H](CCCCNC(=S)NCCC(=O)O)NC(=O)[C@H](CCCNC(=N)N)NC1=O [Compound 5] (Ac-KR[X1]KT-NH2; linker 1-4 via Suberoyl)	>1000	~7.5 µM and 7.5 µM	> 200	> 200	> 1000 µM				
CH3CONH-AR-(N^ε-thiosuccinyl-lysine)-ST-CONH2						~40			
CC(=O)N[C@H]1CCCCNC(=O)CNC(=O)CCCCCCC(=O)NCC(=O)NCCCC[C@@H](C(=O)N[C@H](C(N)=O)[C@@H](C)O)NC(=O)[C@H](CCCCNC(=S)NCCC(=O)O)NC(=O)[C@H](CCCNC(=N)N)NC1=O [Compound 4] (Ac-KR[X1]KT-NH2; linker 1-4 via Suberoyl(Gly)2)		~6 µM and 6 µM			~9.2 µM and 9.2 µM				
C=CCN1C(=O)/C(=C/c2ccc(-c3cccc(Cl)c3Cl)o2)C(=O)NC1=S [Compound 3]						2.3	> 50	9.7	5.3
